Values quoted from earlier work as cited in US20040063806A1, “Antimicrobial polyalphaolefin composition” (priority 2000, published 2004).
Read-outs that look alike come from different tables or passages of the source.

Experiments:
[1] = tested on: Shigella flexneri
[2] = tested on: Enterococcus arabinosus; details: Enterococcus arabinosus ATCC 8014, medium MACA
[3] = tested on: Aspergillus fumigatus; details: Aspergillus fumigatus ATCC 9197, medium SMA
[4] = tested on: Lactobacillus rhamnosus; details: Lactobacillus rhamnosus NCTC 7469, medium MACA
[5] = tested on: Salmonella paratyphi B
[6] = tested on: Serratia marcescens; details: Serratia marcescens ATCC 14756, medium M-H
[7] = tested on: Mycobacterium phlei; details: origin A, medium BHI-A
[8] = tested on: Loefferella mallei; details: Loefferella mallei NCTC 9674, medium NA
[9] = tested on: Listeria monocytogenes; details: Listeria monocytogenes ATCC 15313, medium BHI-A
[10] = tested on: Clostridium difficile; details: Clostridium difficile ATCC 9684, medium BHI-A
[11] = tested on: Citrobacter freundii; details: origin A, medium NA
[12] = tested on: Klebsiella aerogenes; details: Klebsiella aerogenes NCTC 8172, medium NA
[13] = tested on: Acinetobacter lwoffii; details: Acinetobacter lwoffii ATCC 15309, medium M-H
[14] = tested on: Staphylococcus epidermidis; details: Staphylococcus epidermidis ATCC 12228, medium M-H
[15] = tested on: Streptococcus pneumoniae; details: Streptococcus pneumoniae ATCC 33400, medium M-H
[16] = tested on: Escherichia coli
[17] = tested on: Staphylococcus saprophyticus; details: Staphylococcus saprophyticus NCTC 7292, medium NA
[18] = tested on: Streptococcus pyogenes; details: Streptococcus pyogenes ATCC 21059, medium M-H
[19] = tested on: Aerobacter arogenes; details: Aerobacter arogenes CITM 413, medium NA
[20] = tested on: Salmonella typhi
[21] = tested on: Bacillus subtilis; details: Bacillus subtilis NCTC 8236, medium NA
[22] = tested on: Klebsiella pneumoniae
[23] = tested on: Enterobacter sakazakii; details: Enterobacter sakazakii NCTC 8155, medium NA
[24] = tested on: Streptococcus heamolyticus A; details: origin A, medium BHI-A
[25] = tested on: Clostridium perfringens; details: Clostridium perfringens NCTC 3110, medium EA
[26] = tested on: Trichophyton cutaneum; details: origin A, medium SMA
[27] = tested on: Epidermophyton floccosum; details: Epidermophyton floccosum ATCC 10227, medium SMA
[28] = tested on: Streptococcus agalactiae; details: Streptococcus agalactiae NCTC 8181, medium BHI-A
[29] = tested on: Alcaligenes faecalis; details: origin A, medium NA
[30] = tested on: Pasteurella septica; details: Pasteurella septica NCTC 948, medium NA
[31] = tested on: Bacillus cereus var. mycoides; details: origin A, medium NA
[32] = tested on: Pityrosporum ovalae; details: Pityrosporum ovalae ATCC 14521, medium M
[33] = tested on: Actinomyces bovis; details: origin A, medium NA
[34] = tested on: Streptococcus coelicolor; details: origin A, medium BHI-A
[35] = tested on: Shigella sonnei; details: Shigella sonnei NCTC 7240, medium NA
[36] = tested on: Candida parapsylosis; details: origin A, medium SMA
[37] = tested on: Loefferella pseudomallei; details: Loefferella pseudomallei NCIB 10230, medium NA
[38] = tested on: Staphylococcus albus; details: Staphylococcus albus NCTC 7292, medium NA
[39] = tested on: Proteus vulgaris
[40] = tested on: Aspergillus niger; details: Aspergillus niger ATCC 6275, medium M

SMILES: Oc1cc(Cl)ccc1Oc1ccc(Cl)cc1Cl [IRGAGUARD B 1000, 2,4,4′-trichloro-2′-hydroxydiphenyl ether]
- Microbiostatic effect ([1]; Shigella flexneri NCTC 8192, medium NA): 0.3 ppm
- Microbiostatic effect ([1]; Shigella flexneri NCTC 8204, medium NA): 0.1 ppm
- Microbiostatic effect [2]: 33.0 ppm
- Microbiostatic effect [3]: 10 ppm
- Microbiostatic effect [4]: 33.0 ppm
- Microbiostatic effect ([5]; Salmonella paratyphi B NCTC 3176, medium NA): 0.3 ppm
- Microbiostatic effect ([5]; Salmonella paratyphi B NCTC 5704, medium NA): 0.1 ppm
- Microbiostatic effect [6]: >512 ppm
- Microbiostatic effect [7]: 0.3 ppm
- Microbiostatic effect [8]: 0.3 ppm
- Microbiostatic effect [9]: 1.0 ppm
- Microbiostatic effect [10]: 5.0 ppm
- Microbiostatic effect [11]: 3.0 ppm
- Microbiostatic effect [12]: 0.3 ppm
- Microbiostatic effect [13]: 0.125 ppm
- Microbiostatic effect [14]: <0.125 ppm
- Microbiostatic effect [15]: 4.0 ppm
- Microbiostatic effect ([16]; Escheria coli ATCC 8196, medium M-H): 0.02 ppm
- Microbiostatic effect ([16]; Escherichia coli ATCC 4388, medium M-H, Serotype 0157): 0.1 ppm
- Microbiostatic effect ([16]; Escherichia coli ATCC 9661, medium NA): 0.3 ppm
- Microbiostatic effect ([16]; Escherichia coli ATCC 10536, medium BHI): 0.5 ppm
- Microbiostatic effect ([16]; Escherichia coli ATCC 11229, medium M-H): 0.5 ppm
- Microbiostatic effect ([16]; Escherichia coli ATCC 25922, medium M-H): 0.25 ppm
- Microbiostatic effect ([16]; Escherichia coli ATCC 35150, medium M-H, Serotype 0157): 0.2 ppm
- Microbiostatic effect ([16]; Escherichia coli ATCC 43889, medium M-H, Serotype 0157): 0.2 ppm
- Microbiostatic effect ([16]; Escherichia coli ATCC 43890, medium M-H, Serotype 0157): 0.2 ppm
- Microbiostatic effect ([16]; Escherichia coli NCTC 9663, medium NA): 0.3 ppm
- Microbiostatic effect ([16]; Escherichia coli NCTC 11186, medium M-H, Tobramicin resistant): 0.5 ppm
- Microbiostatic effect [17]: 0.1 ppm
- Microbiostatic effect [18]: 4.0 ppm
- Microbiostatic effect [19]: 1.0 ppm
- Microbiostatic effect ([20]; Salmonella typhi NCTC 786, medium NA): 0.3 ppm
- Microbiostatic effect ([20]; Salmonella typhi NCTC 8384, medium NA): 0.3 ppm
- Microbiostatic effect [21]: 0.1 ppm
- Microbiostatic effect ([22]; Klebsiella pneumoniae ATCC 4352, medium NA): 0.3 ppm
- Microbiostatic effect ([22]; Klebsiella pneumoniae ATCC 10031, medium M-H): 0.125 ppm
- Microbiostatic effect [23]: 0.3 ppm
- Microbiostatic effect [24]: 3.0 ppm
- Microbiostatic effect [25]: 10.0 ppm
- Microbiostatic effect [26]: 10 ppm
- Microbiostatic effect [27]: 1-10 ppm
- Microbiostatic effect [28]: 3.0 ppm
- Microbiostatic effect [29]: >100 ppm
- Microbiostatic effect [30]: 0.1 ppm
- Microbiostatic effect [31]: 3.0 ppm
- Microbiostatic effect [32]: >1000 ppm
- Microbiostatic effect [33]: 1.0 ppm
- Microbiostatic effect [34]: 1.0 ppm
- Microbiostatic effect [35]: 0.1 ppm
- Microbiostatic effect [36]: 30 ppm
- Microbiostatic effect [37]: 1.0 ppm
- Microbiostatic effect [38]: 0.1 ppm
- Microbiostatic effect ([39]; Proteus vulgaris NCTC 4636, medium NA): 0.3 ppm
- Microbiostatic effect ([39]; Proteus vulgaris NCTC 8313, medium NA): 0.1 ppm
- Microbiostatic effect [40]: 30 ppm
